Paper PMC8982324 (Journal of Extracellular Vesicles, 2022)
No end group written: not given here.

Columns and labels:
[1] = test system: HEK293T‐eGFP cells; format: cell-based
[2] = biological target: T1, full length NMT1 enzyme (Homo sapiens, UniProt P30419); test: NMT1 activity assay; conditions: synthesized octapeptide; average of three experiments
T1 sequence (P30419 1-496): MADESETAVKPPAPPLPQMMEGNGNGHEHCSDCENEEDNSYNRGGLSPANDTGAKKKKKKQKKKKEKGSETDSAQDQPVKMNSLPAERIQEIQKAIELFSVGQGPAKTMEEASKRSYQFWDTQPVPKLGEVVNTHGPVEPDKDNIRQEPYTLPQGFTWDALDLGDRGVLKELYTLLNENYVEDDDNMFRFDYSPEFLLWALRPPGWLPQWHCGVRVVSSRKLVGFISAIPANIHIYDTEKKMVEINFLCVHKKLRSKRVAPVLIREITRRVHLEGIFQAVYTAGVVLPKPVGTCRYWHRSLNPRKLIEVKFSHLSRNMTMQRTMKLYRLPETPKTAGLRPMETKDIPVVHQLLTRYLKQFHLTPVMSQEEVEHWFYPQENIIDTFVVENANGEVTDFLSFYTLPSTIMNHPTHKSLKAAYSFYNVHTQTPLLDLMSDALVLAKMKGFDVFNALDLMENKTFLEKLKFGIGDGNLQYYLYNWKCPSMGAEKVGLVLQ

Row | Molecule | effect on Cas9 and VSV‐G protein levels in recipient cells [1] | substrate of NMT1 enzyme [2]
1 | CCN(CC)CCCC(C)Nc1ccnc2cc(Cl)ccc12 (centres unmarked) [chloroquine] | greatly increased | 
2 | ASNKSKPK [SRC(G2A)] |  | not a substrate of NMT1
